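Cultured in 96-well plates, cells were exposed to test compound for 48 hours across five concentrations. The concentration for full growth arrest is given as TGI.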
Key:
Assay in all cases: DTP human tumour cell line panel, 48 h
[1] = test system: SK-OV-3 ovarian
[2] = test system: 786-0 renal
[3] = test system: KM12 colon
[4] = test system: HT29 colon
[5] = test system: K-562 leukemia
[6] = test system: UACC-62 melanoma
[7] = test system: MALME-3M melanoma
[8] = test system: OVCAR-3 ovarian
[9] = test system: A549 NSCLC
[10] = test system: NCI-H226 lung
[11] = test system: SNB-75 CNS
[12] = test system: EKVX NSCLC
[13] = test system: UACC-257 melanoma
[14] = test system: SF-268 CNS
[15] = test system: OVCAR-4 ovarian
[16] = test system: HCT-116 colon
[17] = test system: DMS 273 small cell lung
[18] = test system: HCC-2998 colon
[19] = test system: MOLT-4 leukemia
[20] = test system: SW-620 colon
[21] = test system: U251 CNS
[22] = test system: HCT-15 colon
[23] = test system: SF-295 CNS
[24] = test system: M14 melanoma
[25] = test system: SNB-19 CNS
[26] = test system: RXF 393 renal
[27] = test system: IGROV1 ovarian
[28] = test system: SK-MEL-2 melanoma
[29] = test system: HOP-62 NSCLC
[30] = test system: SK-MEL-28 melanoma
[31] = test system: HOP-92 NSCLC
[32] = test system: OVCAR-8 ovarian
[33] = test system: ACHN renal
[34] = test system: HOP-18 NSCLC
[35] = test system: DMS 114 small cell lung
[36] = test system: DLD-1 colon
[37] = test system: SR leukemia
[38] = test system: LXFL 529 NSCLC
[39] = test system: OVCAR-5 ovarian
[40] = test system: SN12C renal
[41] = test system: HL-60(TB) leukemia
[42] = test system: NCI-H460 lung
[43] = test system: M19-MEL melanoma
[44] = test system: KM20L2 colon
[45] = test system: UO-31 renal
[46] = test system: RXF-631 renal
[47] = test system: SNB-78 CNS
[48] = test system: SF-539 CNS
[49] = test system: CAKI-1 renal
[50] = test system: NCI-H23 lung
[51] = test system: COLO 205 colon
[52] = test system: CCRF-CEM leukemia
[53] = test system: RPMI-8226 leukemia
[54] = test system: NCI-H522 lung
[55] = test system: SK-MEL-5 melanoma
[56] = test system: TK-10 renal
[57] = test system: LOX IMVI melanoma
[58] = test system: XF 498 CNS
[59] = test system: A498 renal

N=C1N(c2ccccc2)C(=O)C23CCCC2C13N1CCOCC1 (stereo not given)
TGI [1]: > 100 µM | TGI [2]: > 100 µM | TGI [3]: > 100 µM | TGI [4]: > 100 µM | TGI [5]: > 100 µM | TGI [6]: > 100 µM | TGI [7]: > 100 µM | TGI [8]: > 100 µM | TGI [9]: > 100 µM | TGI [10]: > 100 µM | TGI [11]: > 100 µM | TGI [12]: > 100 µM | TGI [13]: > 100 µM | TGI [14]: > 100 µM | TGI [15]: > 100 µM | TGI [16]: > 100 µM | TGI [17]: > 100 µM | TGI [18]: > 100 µM | TGI [19]: > 100 µM | TGI [20]: > 100 µM | TGI [21]: > 100 µM | TGI [22]: > 100 µM | TGI [23]: > 100 µM | TGI [24]: > 100 µM | TGI [25]: > 100 µM | TGI [26]: > 100 µM | TGI [27]: > 100 µM | TGI [28]: > 100 µM | TGI [29]: > 100 µM | TGI [30]: > 100 µM | TGI [31]: > 100 µM | TGI [32]: > 100 µM | TGI [33]: > 100 µM | TGI [34]: > 100 µM | TGI [35]: > 100 µM | TGI [36]: > 100 µM | TGI [37]: > 100 µM | TGI [38]: > 100 µM | TGI [39]: > 100 µM | TGI [40]: > 100 µM | TGI [41]: > 100 µM | TGI [42]: > 100 µM | TGI [43]: > 100 µM | TGI [44]: > 100 µM | TGI [45]: > 100 µM | TGI [46]: > 100 µM | TGI [47]: > 100 µM | TGI [48]: > 100 µM | TGI [49]: > 100 µM | TGI [50]: > 100 µM | TGI [51]: > 100 µM | TGI [52]: > 100 µM | TGI [53]: > 100 µM | TGI [54]: > 100 µM | TGI [55]: > 100 µM

CC(=O)OCc1cc(OC(C)=O)cnc1COC(C)=O
TGI [1]: > 100 µM | TGI [2]: > 100 µM | TGI [3]: > 100 µM | TGI [4]: > 100 µM | TGI [5]: > 100 µM | TGI [6]: > 100 µM | TGI [56]: > 100 µM | TGI [7]: > 100 µM | TGI [8]: > 100 µM | TGI [9]: > 100 µM | TGI [10]: > 100 µM | TGI [11]: > 100 µM | TGI [12]: > 100 µM | TGI [13]: > 100 µM | TGI [14]: > 100 µM | TGI [15]: > 100 µM | TGI [16]: > 100 µM | TGI [17]: > 100 µM | TGI [19]: > 100 µM | TGI [20]: > 100 µM | TGI [21]: > 100 µM | TGI [22]: > 100 µM | TGI [23]: > 100 µM | TGI [24]: > 100 µM | TGI [25]: > 100 µM | TGI [26]: > 100 µM | TGI [27]: > 100 µM | TGI [28]: > 100 µM | TGI [29]: > 100 µM | TGI [30]: > 100 µM | TGI [31]: > 100 µM | TGI [32]: > 100 µM | TGI [33]: > 100 µM | TGI [34]: > 100 µM | TGI [35]: > 100 µM | TGI [36]: > 100 µM | TGI [37]: > 100 µM | TGI [38]: > 100 µM | TGI [39]: > 100 µM | TGI [40]: > 100 µM | TGI [57]: > 100 µM | TGI [41]: > 100 µM | TGI [42]: > 100 µM | TGI [43]: > 100 µM | TGI [44]: > 100 µM | TGI [45]: > 100 µM | TGI [46]: > 100 µM | TGI [48]: > 100 µM | TGI [49]: > 100 µM | TGI [50]: > 100 µM | TGI [58]: > 100 µM | TGI [51]: > 100 µM | TGI [52]: > 100 µM | TGI [54]: > 100 µM | TGI [55]: > 100 µM | TGI [59]: > 100 µM

COC(=O)/C(C#N)=C1\CCC(O)N1C (stereo not given)
TGI [1]: > 100 µM | TGI [2]: > 100 µM | TGI [3]: > 100 µM | TGI [4]: > 100 µM | TGI [5]: > 100 µM | TGI [6]: > 100 µM | TGI [56]: > 100 µM | TGI [7]: > 100 µM | TGI [8]: > 100 µM | TGI [9]: > 100 µM | TGI [10]: > 100 µM | TGI [11]: > 100 µM | TGI [12]: > 100 µM | TGI [13]: > 100 µM | TGI [14]: > 100 µM | TGI [15]: > 100 µM | TGI [16]: > 100 µM | TGI [18]: > 100 µM | TGI [19]: > 100 µM | TGI [20]: > 100 µM | TGI [21]: > 100 µM | TGI [23]: > 100 µM | TGI [24]: > 100 µM | TGI [25]: > 100 µM | TGI [26]: > 100 µM | TGI [27]: > 100 µM | TGI [28]: > 100 µM | TGI [29]: > 100 µM | TGI [30]: > 100 µM | TGI [32]: > 100 µM | TGI [33]: > 100 µM | TGI [34]: > 100 µM | TGI [35]: > 100 µM | TGI [36]: > 100 µM | TGI [38]: > 100 µM | TGI [39]: > 100 µM | TGI [40]: > 100 µM | TGI [57]: > 100 µM | TGI [41]: > 100 µM | TGI [42]: > 100 µM | TGI [44]: > 100 µM | TGI [45]: > 100 µM | TGI [47]: > 100 µM | TGI [48]: > 100 µM | TGI [49]: > 100 µM | TGI [50]: > 100 µM | TGI [58]: > 100 µM | TGI [52]: > 100 µM | TGI [53]: > 100 µM | TGI [54]: > 100 µM

COc1ccc(C(c2ccc(C(C)C)cc(=O)c2O)c2ccc3cccnc3c2O)cc1 (stereo not given)
TGI [1]: 16.4 µM | TGI [2]: 5.61 µM | TGI [3]: 18.7 µM | TGI [4]: 20.2 µM | TGI [5]: > 100 µM | TGI [6]: 4.63 µM | TGI [7]: 17.5 µM | TGI [8]: 4.95 µM | TGI [9]: 12.3 µM | TGI [10]: 4.38 µM | TGI [11]: 0.589 µM | TGI [12]: 7.86 µM | TGI [14]: 10.4 µM | TGI [15]: 23.9 µM | TGI [16]: 12.8 µM | TGI [17]: 2.08 µM | TGI [19]: > 100 µM | TGI [20]: 24.4 µM | TGI [21]: 3.5 µM | TGI [22]: 14.5 µM | TGI [23]: 7.43 µM | TGI [24]: 3.06 µM | TGI [27]: 15.3 µM | TGI [28]: 30.1 µM | TGI [29]: 2.29 µM | TGI [31]: 0.898 µM | TGI [32]: 12.7 µM | TGI [33]: 7.53 µM | TGI [35]: 0.645 µM | TGI [36]: 15.3 µM | TGI [37]: 15.9 µM | TGI [38]: 15.7 µM | TGI [39]: 6.32 µM | TGI [40]: 9.48 µM | TGI [57]: > 100 µM | TGI [41]: 6.23 µM | TGI [42]: 10.1 µM | TGI [43]: 2.54 µM | TGI [45]: 1.78 µM | TGI [47]: 23.2 µM | TGI [48]: 2.29 µM | TGI [49]: 5.15 µM | TGI [50]: 1.58 µM | TGI [58]: 16.4 µM | TGI [51]: 19.3 µM | TGI [52]: > 100 µM | TGI [53]: 23.6 µM | TGI [54]: 10.9 µM | TGI [55]: 2.41 µM
